# From PMC8343220, “The selectivity of α‐adrenoceptor agonists for the human α1A, α1B, and α1D‐adrenoceptors” (Pharmacology Research & Perspectives, 2021)
# Read-outs that look alike come from different tables or passages of the source.
# Experiments:
# [1] = target: T1, human α1D‐adrenoceptor (full length) (Homo sapiens, UniProt P25100); test: ^3H‐prazosin whole‐cell radioligand binding, CHO‐α1D cells
# T1 construct: human α1D‐adrenoceptor (full length) were used; expressed in transfected cells; host or cells: CHO-K1
# T1 sequence (P25100 1-572): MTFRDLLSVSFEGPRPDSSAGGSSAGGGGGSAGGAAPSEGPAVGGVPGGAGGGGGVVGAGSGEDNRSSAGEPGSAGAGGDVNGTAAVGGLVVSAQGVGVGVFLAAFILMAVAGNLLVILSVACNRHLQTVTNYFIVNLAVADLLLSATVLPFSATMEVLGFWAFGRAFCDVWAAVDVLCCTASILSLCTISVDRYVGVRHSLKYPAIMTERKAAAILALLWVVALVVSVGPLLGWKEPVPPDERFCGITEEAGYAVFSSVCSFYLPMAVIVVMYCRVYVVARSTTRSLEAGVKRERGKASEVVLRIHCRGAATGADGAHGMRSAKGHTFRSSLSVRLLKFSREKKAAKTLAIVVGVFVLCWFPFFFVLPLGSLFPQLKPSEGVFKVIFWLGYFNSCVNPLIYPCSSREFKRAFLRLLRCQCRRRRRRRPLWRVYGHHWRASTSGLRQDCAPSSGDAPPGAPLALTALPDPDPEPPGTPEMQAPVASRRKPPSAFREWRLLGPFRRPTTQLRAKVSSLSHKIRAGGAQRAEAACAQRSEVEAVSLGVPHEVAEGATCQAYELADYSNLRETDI
# [2] = test system: parental CHO cell line without any transfected receptors; test: Forskolin‐stimulated cAMP accumulation, parent CHO cells without transfected receptors; assay type: cell-based, Chinese hamster
# [3] = target: T1, human α1D‐adrenoceptor (full length); test: Intracellular free calcium mobilization, CHO‐α1D cells; assay type: cell-based; settings: for Intracellular calcium release % ionomycin: maximal response as % of 10 µM ionomycin
# human α1B‐adrenoceptor [4] = target: T2, human α1B‐adrenoceptor (Homo sapiens, UniProt P35368); test: ^3H‐prazosin whole‐cell radioligand binding, CHO‐α1B cells; settings: for Log KD α1B, ^3H‐prazosin whole cell binding: given as log KD (negative), mean ± SEM
# T2 construct: expressed in transfected cells; host or cells: CHO-K1
# T2 sequence (P35368 1-520): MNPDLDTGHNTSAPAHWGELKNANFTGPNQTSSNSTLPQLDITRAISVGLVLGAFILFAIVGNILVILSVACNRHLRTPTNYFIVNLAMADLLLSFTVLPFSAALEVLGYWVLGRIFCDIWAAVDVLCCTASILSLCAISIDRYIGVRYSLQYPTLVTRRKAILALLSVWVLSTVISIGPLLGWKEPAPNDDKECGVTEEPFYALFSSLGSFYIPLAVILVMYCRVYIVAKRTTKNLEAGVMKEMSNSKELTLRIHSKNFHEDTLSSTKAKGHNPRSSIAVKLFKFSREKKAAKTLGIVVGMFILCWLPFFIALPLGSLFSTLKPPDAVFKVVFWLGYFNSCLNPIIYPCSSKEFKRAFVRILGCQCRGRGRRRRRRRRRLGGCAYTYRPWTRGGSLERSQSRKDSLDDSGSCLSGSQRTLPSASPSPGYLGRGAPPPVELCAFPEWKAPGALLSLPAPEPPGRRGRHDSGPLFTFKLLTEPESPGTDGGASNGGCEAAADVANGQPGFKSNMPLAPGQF
# human α1B‐adrenoceptor [5] = target: T2, human α1B‐adrenoceptor; test: ERK1/2‐phosphorylation (Surefire Alphascreen), CHO‐α1B cells; assay type: cell-based
# human α1B‐adrenoceptor [6] = target: T2, human α1B‐adrenoceptor; test: Intracellular free calcium mobilization, CHO‐α1B cells; assay type: cell-based
# [7] = target: T1, human α1D‐adrenoceptor (full length); test: ERK1/2‐phosphorylation (Surefire Alphascreen), CHO‐α1D cells; assay type: cell-based; settings: for ERK1/2‐phosphorylation % PDBu: maximal response as % of PDBu
# human α1A‐adrenoceptor [8] = target: T3, human α1A‐adrenoceptor (Homo sapiens, UniProt P35348); test: Intracellular free calcium mobilization, CHO‐α1A cells; assay type: cell-based
# T3 construct: expressed in transfected cells; host or cells: CHO-K1
# T3 sequence (P35348 1-466): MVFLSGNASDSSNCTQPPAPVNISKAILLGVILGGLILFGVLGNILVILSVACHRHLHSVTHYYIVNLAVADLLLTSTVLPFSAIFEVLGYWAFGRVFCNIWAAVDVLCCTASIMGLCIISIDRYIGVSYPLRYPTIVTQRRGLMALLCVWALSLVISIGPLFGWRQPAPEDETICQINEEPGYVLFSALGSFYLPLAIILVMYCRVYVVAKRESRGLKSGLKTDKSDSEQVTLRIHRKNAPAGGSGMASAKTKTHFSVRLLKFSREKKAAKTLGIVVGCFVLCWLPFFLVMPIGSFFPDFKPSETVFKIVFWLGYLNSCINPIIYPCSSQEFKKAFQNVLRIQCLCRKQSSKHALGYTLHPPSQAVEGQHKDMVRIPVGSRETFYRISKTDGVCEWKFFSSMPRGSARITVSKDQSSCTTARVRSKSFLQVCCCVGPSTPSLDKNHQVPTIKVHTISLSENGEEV
# [9] = test system: parental CHO cell line without any transfected receptors; test: ERK1/2‐phosphorylation, parent CHO cells without transfected receptors; assay type: cell-based, Chinese hamster
# human α1A‐adrenoceptor [10] = target: T3, human α1A‐adrenoceptor; test: ERK1/2‐phosphorylation (Surefire Alphascreen), CHO‐α1A cells; assay type: cell-based
# human α1A‐adrenoceptor [11] = target: T3, human α1A‐adrenoceptor; test: ^3H‐prazosin whole‐cell radioligand binding, CHO‐α1A cells
# human α1A‐adrenoceptor [12] = target: T3, human α1A‐adrenoceptor; test: ^3H‐cAMP accumulation, CHO‐α1A cells; assay type: cell-based; settings: CHO‐α1A cells; % of 10 µM forskolin response
# [13] = CHO‐α1B cells, whole‐cell binding (from Table 1), given as log KD (negative numbers)
# [14] = CHO‐α1D cells, log values given negative
# [15] = CHO‐α1B cells, maximal response as % PDBu response, for bi‐phasic responses the initial stimulatory part
# [16] = CHO‐α1B cells, response at 100 µM ligand (no EC50 given), % of ionomycin response
compound,measurement,setting,value
COc1ccc(CC(C)NCC(O)c2ccc(O)c(NC=O)c2)cc1 (stereo not shown) [Formoterol],Kd,[1]; 3H‐prazosin binding Log KD,7.08 µM
same,Kd,"[1]; Log KD α1D, ^3H‐prazosin whole cell binding",7.08 µM
same,cAMP accumulation (in presence of forskolin) Log EC50,[2],No response
same,Intracellular calcium release Log EC50,[3],No response
c1ccc2c(c1)CCCC2C1=NCCN1 (stereo not shown) [Tetrohydrozoline],"Log KD, ^3H‐prazosin binding",human α1B‐adrenoceptor [4],−5.22
same,ERK1/2‐phosphorylation % PDBu,human α1B‐adrenoceptor [5],No response
same,ERK1/2‐phosphorylation Log EC50,human α1B‐adrenoceptor [5],No response
same,Intracellular calcium release % Ionomycin at 100 µM,human α1B‐adrenoceptor [6],2.9 ± 1.4%
C=CCN1CCc2nc(N)sc2CC1 [BHT920],"Log KD, ^3H‐prazosin binding",human α1B‐adrenoceptor [4]; [13],−3.73
same,"Log KD α1B, ^3H‐prazosin whole cell binding",human α1B‐adrenoceptor [4]; CHO‐α1B cells,−3.73 ± 0.04
same,ERK1/2‐phosphorylation Log EC50,[7],No response
same,ERK1/2‐phosphorylation % PDBu,[7]; CHO‐α1D cells,No response
same,Affinity selectivity ratio α1B vs α1D,[1],5.8 fold
same,3H‐prazosin binding Log KD,"[1]; CHO‐α1D cells, whole‐cell binding (from Table 1), log values given negative",−4.49
same,"Log KD α1D, ^3H‐prazosin whole cell binding","[1]; CHO‐α1D cells, given as log KD (negative), mean ± SEM, 'early plateau' = specific binding not fully inhibited",−4.49 ± 0.07
same,Intracellular calcium release Log EC50,[3]; [14],No response
same,Intracellular calcium release % ionomycin,[3]; CHO‐α1D cells,No response
same,Intracellular calcium release % ionomycin,human α1A‐adrenoceptor [8],39.7 ± 3.3%
same,Intracellular calcium release Log EC50,human α1A‐adrenoceptor [8],−5.68 ± 0.09
same,Log efficacy ratio KD /EC50,human α1A‐adrenoceptor [8],0.98
same,ERK1/2‐phosphorylation Log EC50,human α1B‐adrenoceptor [5],−5.31 ± 0.04
same,ERK1/2‐phosphorylation % PDBu,human α1B‐adrenoceptor [5]; [15],12.2 ± 3.6%
same,ERK1/2-phosphorylation % PDBu at 100μM,"[9]; CHO cells without transfected receptors, response at 100μM only, EC50 not obtainable, % of PDBu (10μM)",3.8 ± 1.8%
same,Intracellular calcium release % Ionomycin at 100 µM,human α1B‐adrenoceptor [6]; [16],16.3 ± 4.5%
same,ERK1/2‐phosphorylation % PDBu,human α1A‐adrenoceptor [10],61.4 ± 5.5%
same,ERK1/2‐phosphorylation Log EC50,human α1A‐adrenoceptor [10],−5.14 ± 0.05
same,Affinity selectivity ratio α1A vs α1B,human α1A‐adrenoceptor [11],9.3 fold
same,Affinity selectivity ratio α1A vs α1D,human α1A‐adrenoceptor [11],1.6 fold
same,"Log KD α1A, ^3H‐prazosin whole cell binding",human α1A‐adrenoceptor [11],−4.70 ± 0.04
COc1ccc(OC)c(C(O)CNC(=O)CN)c1 (stereo not shown) [Midodrine],"Log KD, ^3H‐prazosin binding",human α1B‐adrenoceptor [4]; [13],No binding
same,"Log KD α1B, ^3H‐prazosin whole cell binding",human α1B‐adrenoceptor [4]; CHO‐α1B cells,No binding
same,ERK1/2‐phosphorylation Log EC50,[7]; [14],No response
same,ERK1/2‐phosphorylation % PDBu,[7]; CHO‐α1D cells,No response
same,"3H‐prazosin binding log IC50 (bound, printed in Log KD column)","[1]; CHO‐α1D cells, whole‐cell binding, given as IC50 > log value",IC50 > −3
same,IC50,"[1]; CHO‐α1D cells, printed as IC50> log value",> 1000 µM
same,Intracellular calcium release Log EC50,[3]; [14],No response
same,Intracellular calcium release % ionomycin,[3]; CHO‐α1D cells,No response
same,ERK1/2‐phosphorylation % PDBu at 100 µM,"human α1B‐adrenoceptor [5]; CHO‐α1B cells, response at 100 µM ligand (no EC50 given)",20.4 ± 8.0%
same,ERK1/2-phosphorylation % PDBu,"[9]; CHO cells without transfected receptors, maximal response as % of PDBu (10μM) response, mean ± s.e.m.",No response
same,ERK1/2-phosphorylation Log EC50,"[9]; CHO cells without transfected receptors, mean ± s.e.m.",No response
same,Intracellular calcium release % Ionomycin at 100 µM,human α1B‐adrenoceptor [6]; [16],16.9 ± 2.0%
same,ERK1/2‐phosphorylation % PDBu at 100 µM,"human α1A‐adrenoceptor [10]; CHO‐α1A cells, response at 100 μM ligand, no EC50 obtained",87.7 ± 11.0%
CC(C)NCC(O)c1ccc(O)c(O)c1 (stereo not shown) [Isoprenaline],cAMP accumulation % forskolin,human α1A‐adrenoceptor [12],16.2 ± 3.0%
same,ERK1/2‐phosphorylation % PDBu,[7]; CHO‐α1D cells,8.5 ± 1.7%
same,cAMP accumulation (in presence of forskolin) Log EC50,"[2]; CHO cells without transfected receptors, in presence of forskolin",No response
same,Intracellular calcium release % Ionomycin at 100 µM,"[3]; CHO‐α1D cells, response at 100 µM ligand (no EC50 given)",3.6 ± 1.2%
same,ERK1/2‐phosphorylation % PDBu,human α1B‐adrenoceptor [5]; [15],77.8 ± 8.5%
same,Emax at 100 µM,"[9]; Cricetulus griseus, CHO, read-out: ERK1/2-phosphorylation % PDBu at 100μM",5.1 ± 4.6%
same,Intracellular calcium release % ionomycin,"human α1B‐adrenoceptor [6]; CHO‐α1B cells, maximal response as % of 10 µM ionomycin response",53.9 ± 3.3%
